Data reported in patent US20130303507A1 (Novartis AG, priority 2011, published 2013).

Target: Cdk9/cyclinT1 (Homo sapiens, UniProt P50750)
Assay: Cdk9/cyclinT1 IMAP protocol (fluorescence polarization)
Settings: IC-50, CDK9; lower limit of assay 0.0005 micromolar

Cdk9/cyclinT1, sequence (P50750 whole entry): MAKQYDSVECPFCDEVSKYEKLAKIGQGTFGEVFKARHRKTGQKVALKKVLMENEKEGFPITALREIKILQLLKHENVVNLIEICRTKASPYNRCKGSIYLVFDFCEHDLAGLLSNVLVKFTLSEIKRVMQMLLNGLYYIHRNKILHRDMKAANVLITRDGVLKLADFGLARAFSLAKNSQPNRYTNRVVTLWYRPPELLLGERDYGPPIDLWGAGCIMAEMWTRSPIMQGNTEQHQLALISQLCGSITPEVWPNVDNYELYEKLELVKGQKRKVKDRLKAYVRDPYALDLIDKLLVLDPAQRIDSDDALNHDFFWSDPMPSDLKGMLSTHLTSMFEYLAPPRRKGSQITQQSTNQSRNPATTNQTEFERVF
Cdk9/cyclinT1, sequence (O60563 whole entry partner): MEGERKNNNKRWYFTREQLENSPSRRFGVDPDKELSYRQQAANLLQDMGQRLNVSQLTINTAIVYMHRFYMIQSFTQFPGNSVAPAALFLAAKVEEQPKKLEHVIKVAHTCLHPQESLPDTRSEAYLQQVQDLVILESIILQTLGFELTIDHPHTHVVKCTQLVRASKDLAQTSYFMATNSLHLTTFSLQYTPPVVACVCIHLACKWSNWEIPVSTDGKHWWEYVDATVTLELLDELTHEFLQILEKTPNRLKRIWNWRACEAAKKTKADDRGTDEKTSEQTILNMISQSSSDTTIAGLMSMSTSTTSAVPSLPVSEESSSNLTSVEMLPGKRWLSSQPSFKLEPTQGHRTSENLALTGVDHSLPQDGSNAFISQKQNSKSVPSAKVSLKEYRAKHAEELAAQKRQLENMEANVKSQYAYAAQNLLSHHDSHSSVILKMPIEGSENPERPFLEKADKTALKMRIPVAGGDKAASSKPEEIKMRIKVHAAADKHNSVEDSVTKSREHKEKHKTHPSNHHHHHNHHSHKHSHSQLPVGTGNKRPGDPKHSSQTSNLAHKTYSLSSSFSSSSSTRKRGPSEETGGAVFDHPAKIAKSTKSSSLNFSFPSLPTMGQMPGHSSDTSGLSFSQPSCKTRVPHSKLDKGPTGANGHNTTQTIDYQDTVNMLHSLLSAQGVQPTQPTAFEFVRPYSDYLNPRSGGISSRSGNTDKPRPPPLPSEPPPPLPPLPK

Compound: COC[C@@H](C)N[C@H]1CC[C@H](Nc2cc(-c3cncc(OCC4(C#N)CCOCC4)n3)c(Cl)cn2)CC1 [Compound 509, 4-(((6-(5-chloro-2-((trans-4-(((R)-1-methoxypropan-2-yl)amino)cyclohexyl)amino)pyridin-4-yl)pyrazin-2-yl)oxy)methyl)tetrahydro-2H-pyran-4-carbonitrile]
- IC50: 1.1 nM

Compound: CO[C@@H]1C[C@@H](Nc2cc(-c3cccc(NCC4(C#N)CCOCC4)n3)c(Cl)cn2)CC[C@@H]1N (single isomer, unassigned) [Compound 435]
- IC50: ≤ 0.5 nM

Compound: N#CC1(CNc2cccc(-c3cc(N[C@H]4CC[C@H](NC[C@@H]5CCCO5)CC4)ncc3Cl)n2)CCOCC1 [Compound 472, 4-(((5′-chloro-2′-((trans-4-((((S)-tetrahydrofuran-2-yl)methyl)amino)cyclohexyl)amino)-[2,4′-bipyridin]-6-yl)amino)methyl)tetrahydro-2H-pyran-4-carbonitrile]
- IC50: < 0.5 nM

Compound: C[C@@H]1CN([C@H]2CC[C@H](Nc3cc(-c4cccc(NCC5(C#N)CCOCC5)n4)c(Cl)cn3)CC2)C[C@H](C)O1 [Compound 426, 4-(((5′-chloro-2′-((trans-4-((2S,6R)-2,6-dimethylmorpholino)cyclohexyl)amino)-[2,4′-bipyridin]-6-yl)amino)methyl)tetrahydro-2H-pyran-4-carbonitrile]
- IC50: ≤ 0.5 nM

Compound: CO[C@H]1C[C@@H](Nc2cc(-c3cccc(NCC4(C#N)CCOCC4)n3)c(Cl)cn2)CC[C@@H]1N [Compound 439, 4-(((2′-(((1S,3S,4S)-4-amino-3-methoxycyclohexyl)amino)-5′-chloro-[2,4′-bipyridin]-6-yl)amino)methyl)tetrahydro-2H-pyran-4-carbonitrile]
- IC50: 10 nM

Compound: N#CC1(CNc2cccc(-c3cc(N[C@H]4CCCc5ccccc54)ncc3Cl)n2)CCOCC1 [Compound 501, (S)-4-(((5′-chloro-2′-((1,2,3,4-tetrahydronaphthalen-1-yl)amino)-[2,4′-bipyridin]-6-yl)amino)methyl)tetrahydro-2H-pyran-4-carbonitrile]
- IC50: 480 nM

Compound: COC[C@H](C)N[C@H]1CC[C@H](Nc2cc(-c3cccc(NCC4(C#N)CCOCC4)n3)c(F)cn2)CC1 [Compound 489, 4-(((5′-fluoro-2′-((trans-4-(((S)-1-methoxypropan-2-yl)amino)cyclohexyl)amino)-[2,4′-bipyridin]-6-yl)amino)methyl)tetrahydro-2H-pyran-4-carbonitrile]
- IC50: ≤ 0.5 nM

Compound: N#CC1(CNc2cccc(-c3cc(N[C@H]4CC[C@H](N5CCNC(=O)C5)CC4)ncc3Cl)n2)CCOCC1 [Compound 417]
- IC50: 1.3 nM

Compound: CCOC(=O)C(C)(C)N[C@H]1CC[C@H](Nc2cc(-c3cccc(NCC4(C#N)CCOCC4)n3)c(Cl)cn2)CC1 [Compound 452, ethyl 2-((trans-4-((5′-chloro-6-(((4-cyanotetrahydro-2H-pyran-4-yl)methyl)amino)-[2,4′-bipyridin]-2′-yl)amino)cyclohexyl)amino)-2-methylpropanoate]
- IC50: 0.7 nM

Compound: CC(C)(CO)N[C@H]1CC[C@H](Nc2cc(-c3cccc(NCC4(C#N)CCOCC4)n3)c(Cl)cn2)CC1 [Compound 453, 4-(((5′-chloro-2′-((trans-4-((1-hydroxy-2-methylpropan-2-yl)amino)cyclohexyl)amino)-[2,4′-bipyridin]-6-yl)amino)methyl)tetrahydro-2H-pyran-4-carbonitrile]
- IC50: < 0.5 nM

Compound: N#CC1(CNc2cccc(-c3cc(N[C@H]4CC[C@@H](N5CCNC(=O)C5)CC4)ncc3Cl)n2)CCOCC1 [Compound 418, 4-(((5′-chloro-2′-((cis-4-(3-oxopiperazin-1-yl)cyclohexyl)amino)-[2,4′-bipyridin]-6-yl)amino)methyl)tetrahydro-2H-pyran-4-carbonitrile]
- IC50: 8.5 nM

Compound: N#CC1(CNc2cccc(-c3cc(NC4CCOCC4)ncc3Cl)n2)CCOCC1 [Compound 443, 4-(((5′-chloro-2′-((tetrahydro-2H-pyran-4-yl)amino)-[2,4′-bipyridin]-6-yl)amino)methyl)tetrahydro-2H-pyran-4-carbonitrile]
- IC50: 1.7 nM

Compound: N#CC1(CNc2cccc(-c3cc(N[C@H]4CC[C@H](NC5CCOC5)CC4)ncc3Cl)n2)CCOCC1 (stereo partly drawn) [Compound 467, 4-(((5′-chloro-2′-((trans-4-((tetrahydrofuran-3-yl)amino)cyclohexyl)amino)-[2,4′-bipyridin]-6-yl)amino)methyl)tetrahydro-2H-pyran-4-carbonitrile]
- IC50: < 0.5 nM

Compound: N#CC1(CNc2cccc(-c3cc(N[C@H]4CC[C@H](NC[C@H]5CCCO5)CC4)ncc3F)n2)CCOCC1 [Compound 484, 4-(((5′-fluoro-2′-((trans-4-((((R)-tetrahydrofuran-2-yl)methyl)amino)cyclohexyl)amino)-[2,4′-bipyridin]-6-yl)amino)methyl)tetrahydro-2H-pyran-4-carbonitrile]
- IC50: < 0.5 nM

Compound: COCCN[C@H]1CC[C@H](Nc2cc(-c3cccc(NCC4(C#N)CCOCC4)n3)c(F)cn2)CC1 [Compound 474, 4-(((5′-fluoro-2′-((trans-4-((2-methoxyethyl)amino)cyclohexyl)amino)-[2,4′-bipyridin]-6-yl)amino)methyl)tetrahydro-2H-pyran-4-carbonitrile]
- IC50: < 0.5 nM

Compound: CO[C@H]1C[C@H](Nc2cc(-c3cccc(NCC4(C#N)CCOCC4)n3)c(Cl)cn2)CC[C@H]1N (single isomer, unassigned) [Compound 436]
- IC50: < 0.5 nM

Compound: CC(C)N[C@@H]1CC[C@@H](Nc2cc(-c3cccc(NCC4(C#N)CCOCC4)n3)c(Cl)cn2)C1 (relative stereo) [Example 408]
- IC50: 0.6 nM

Compound: N#CC1(CNc2cccc(-c3cc(N[C@H]4CC[C@H](N[C@H]5CCOC5)CC4)ncc3Cl)n2)CCOCC1 [Compound 469, 4-(((5′-chloro-2′-((trans-4-(((S)-tetrahydrofuran-3-yl)amino)cyclohexyl)amino)-[2,4′-bipyridin]-6-yl)amino)methyl)tetrahydro-2H-pyran-4-carbonitrile]
- IC50: < 0.5 nM

Compound: N#CC1(CNc2cccc(-c3cc(N[C@H]4CC[C@H](NCC5(C#N)CC5)CC4)ncc3Cl)n2)CCOCC1 [Compound 414, 4-(((5′-chloro-2′-((trans-4-(((1-cyanocyclopropyl)methyl)amino)cyclohexyl)amino)-[2,4′-bipyridin]-6-yl)amino)methyl)tetrahydro-2H-pyran-4-carbonitrile]
- IC50: < 0.5 nM

Compound: CC(C)(NC[C@H]1CC[C@H](Nc2cc(-c3cccc(NCC4(C#N)CCOCC4)n3)c(Cl)cn2)CC1)C(=O)O [Compound 429, 2-(((trans-4-((5′-chloro-6-(((4-cyanotetrahydro-2H-pyran-4-yl)methyl)amino)-[2,4′-bipyridin]-2′-yl)amino)cyclohexyl)methyl)amino)-2-methylpropanoic acid]
- IC50: 1.3 nM

Compound: COC[C@H](C)N[C@H]1CC[C@H](Nc2cc(-c3ccc(F)c(NCC4CCOC(C)(C)C4)n3)c(Cl)cn2)CC1 (stereo partly drawn) [Compound 457, 5′-chloro-N6-((2,2-dimethyltetrahydro-2H-pyran-4-yl)methyl)-5-fluoro-N2′-(trans-4-(((S)-1-methoxypropan-2-yl)amino)cyclohexyl)-[2,4′-bipyridine]-2′,6-diamine]
- IC50: 1.6 nM

Compound: COCCN[C@H]1CC[C@H](Nc2cc(-c3nc(NCC4(C#N)CCOCC4)cnc3Cl)c(Cl)cn2)CC1 [Compound 508, 4-(((5-chloro-6-(5-chloro-2-((trans-4-((2-methoxyethyl)amino)cyclohexyl)amino)pyridin-4-yl)pyrazin-2-yl)amino)methyl)tetrahydro-2H-pyran-4-carbonitrile]
- IC50: < 0.5 nM

Compound: COCCN[C@@H]1CC[C@@H](Nc2cc(-c3cccc(NCC4(C#N)CCOCC4)n3)c(Cl)cn2)C1 [Compound 409, 4-(((5′-chloro-2′-(((1R,3R)-3-((2-methoxyethyl)amino)cyclopentyl)amino)-[2,4′-bipyridin]-6-yl)amino)methyl)tetrahydro-2H-pyran-4-carbonitrile]
- IC50: 0.6 nM

Compound: N#CC1(CNc2cccc(-c3cc(N[C@@H]4CC[C@@H](N(CC5CCCO5)CC5CCCO5)C4)ncc3Cl)n2)CCOCC1 (some centres unmarked) [Example 407]
- IC50: 5.5 nM

Compound: COC[C@H](C)N[C@H]1CC[C@H](Nc2cc(-c3cccc(NCC4(C#N)CCOCC4)n3)c(Cl)cn2)CC1 [Compound 459, 4-(((5′-chloro-2′-((trans-4-(((S)-1-methoxypropan-2-yl)amino)cyclohexyl)amino)-[2,4′-bipyridin]-6-yl)amino)methyl)tetrahydro-2H-pyran-4-carbonitrile]
- IC50: ≤ 0.5 nM

Compound: CO[C@H]1CCN([C@H]2CC[C@H](Nc3cc(-c4cccc(NCC5(C#N)CCOCC5)n4)c(Cl)cn3)CC2)C1 [Compound 475, 4-(((5′-chloro-2′-((trans-4-((S)-3-methoxypyrrolidin-1-yl)cyclohexyl)amino)-[2,4′-bipyridin]-6-yl)amino)methyl)tetrahydro-2H-pyran-4-carbonitrile]
- IC50: 0.6 nM

Compound: N#CC1(CNc2cccc(-c3cc(N[C@@H]4CC[C@@H](NCC5CCCO5)C4)ncc3Cl)n2)CCOCC1 (stereo partly drawn) [Compound 410, 4-(((5′-chloro-2′-(((1R,3R)-3-(((tetrahydrofuran-2-yl)methyl)amino)cyclopentyl)amino)-[2,4′-bypyridin]-6-yl)amino)methyl)tetrahydro-2H-pyran-4-carbonitrile]
- IC50: < 0.5 nM

Compound: CC(O)(C(=O)N[C@H]1CC[C@H](Nc2cc(-c3cccc(NCC4(C#N)CCOCC4)n3)c(Cl)cn2)CC1)C(F)(F)F (stereo partly drawn) [Compound 431, N-(trans-4-((5′-chloro-6-(((4-cyanotetrahydro-2H-pyran-4-yl)methyl)amino)-[2,4′-bipyridin]-2′-yl)amino)cyclohexyl)-3,3,3-trifluoro-2-hydroxy-2-methylpropanamide]
- IC50: 1.7 nM

Compound: CCOC(=O)C(C)(C)NC[C@H]1CC[C@H](Nc2cc(-c3cccc(NCC4(C#N)CCOCC4)n3)c(Cl)cn2)CC1 [Compound 425, ethyl 2-(((trans-4-((5′-chloro-6-(((4-cyanotetrahydro-2H-pyran-4-yl)methyl)amino)-[2,4′-bipyridin]-2′-yl)amino)cyclohexyl)methyl)amino)-2-methylpropanoate]
- IC50: 1.1 nM
